Each structure is given as a SMILES string. Structures can show the parent of a compound that is named as a salt. A value given as a limit tells only on which side of the number the result lay.

One molecule from patent EP0423133B1, “ENZYMATIC RESOLUTION SYSTEMS AND COMPOUNDS USEFUL IN THE SYSTEMS AND THEIR REPARATIONS” (priority 1988, dated 1989) can be followed below.

In one assay the test system is Protease XXIII. The assay can be described thus: Homogeneous aqueous enzymatic resolution (ester hydrolysis) with enzyme A. To be noted: 10.0 mmol ester in 100 ml 0.2 M phosphate buffer pH 7.0, 100 mg enzyme A, 20-22 °C, 20 hours. Type of assay: biochemical, Aspergillus oryzae. On the procedure:
The enzymes used in Examples 6.2.1.1-6.2.1.17, 6.2.1.20-6.2.1.21, 6.2.1.23-6.2.1.28, 6.2.2.7, and 6.2.3.1-6.2.3.5 that follow were all proteases commercially available from Sigma Chemical Co., St. Louis, MO. […] For examples 6.2.2.5-6.2.2.6, Candida lipase obtained from Genzyme Corporation was used.
No further purification was performed.
The aqueous layer was retained.

The target of assay [1] is T1, Protease VIII: "Subtilopeptidase A" (Bacillus licheniformis, UniProt P00780).
T1 sequence (P00780 106-379): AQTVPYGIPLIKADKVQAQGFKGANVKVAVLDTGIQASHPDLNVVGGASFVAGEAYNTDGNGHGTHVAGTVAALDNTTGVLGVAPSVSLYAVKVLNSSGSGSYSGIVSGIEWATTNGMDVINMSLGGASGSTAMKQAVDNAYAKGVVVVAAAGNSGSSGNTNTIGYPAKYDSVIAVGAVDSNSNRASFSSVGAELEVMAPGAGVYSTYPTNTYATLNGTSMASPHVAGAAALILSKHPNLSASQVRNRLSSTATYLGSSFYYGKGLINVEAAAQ
Kind of assay: Homogeneous aqueous enzymatic resolution (ester hydrolysis) with enzyme B. Conditions: 10.0 mmol ester in 100 ml 0.2 M phosphate buffer pH 7.0, 100 mg enzyme B, 20-22 °C, 20 hours. Type of assay: biochemical.

A further assay deals with Protease XVI. Kind of assay: Homogeneous aqueous enzymatic resolution (ester hydrolysis) with enzyme C. The format is biochemical, Bacillus subtilis. Conditions: 10.0 mmol ester in 100 ml 0.2 M phosphate buffer pH 7.0, 100 mg enzyme C, 20-22 °C, 20 hours. From the text:
(§1) The enzymes used in Examples 6.2.1.1-6.2.1.17, 6.2.1.20-6.2.1.21, 6.2.1.23-6.2.1.28, 6.2.2.7, and 6.2.3.1-6.2.3.5 that follow were all proteases commercially available from Sigma Chemical Co., St. Louis, MO. These proteases are listed in each example using the Sigma numbering system, which is summarized below: • Protease VIII: "Subtilopeptidase A", product P-5380 (also known as subtilisin Carlsberg) • Protease XIV: from Streptomyces griseus, product P-5147 • Protease XVI: from Bacillus subtilis, product P-8775 • Protease XXIII: from Aspergillus oryzae, product P-4032 • Protease XXVII: "Nagarse", product P-4789 • Protease XXIV: bacterial protease, product P-8038 An additional protease enzyme, which was designated Prozyme 6, was obtained from the Amano Enzyme Corporation and used in Examples 6.2.1.18-6.2.19, 6.2.1.22, 6.2.1.29-6.2.1.30 and 6.2.2.1-6.2.2.4 described below. A pig liver esterase was used in Example 6.21.11; this enzyme, obtained from Sigma Chemical Company, was designated as their product E-3128. For examples 6.2.2.5-6.2.2.6, Candida lipase obtained from Genzyme Corporation was used. Finally, Candida lipase, product L-1754, obtained from Sigma Chemical Co. was used in Example 6.2.2.7.

Assay [2] concerns the target T2, Protease XXVII: "Nagarse" (Bacillus amyloliquefaciens, UniProt P00782).
T2 sequence (P00782 108-382): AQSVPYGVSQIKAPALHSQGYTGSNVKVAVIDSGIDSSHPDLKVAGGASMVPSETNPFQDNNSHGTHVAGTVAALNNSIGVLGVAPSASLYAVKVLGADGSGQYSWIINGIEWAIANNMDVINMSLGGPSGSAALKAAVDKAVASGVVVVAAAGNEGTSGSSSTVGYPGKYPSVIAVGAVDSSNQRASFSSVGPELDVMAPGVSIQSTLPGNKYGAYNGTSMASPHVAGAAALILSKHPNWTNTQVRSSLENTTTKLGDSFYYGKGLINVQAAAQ
Kind of assay: Homogeneous aqueous enzymatic resolution (ester hydrolysis) with enzyme D. The format is biochemical. To be noted: 10.0 mmol ester in 100 ml 0.2 M phosphate buffer pH 7.0, 100 mg enzyme D, 20-22 °C, 20 hours.
Description: as §1

For assay [3], the system named is Prozyme 6. The assay can be described thus: Homogeneous aqueous enzymatic resolution (ester hydrolysis) with enzyme F. The format is biochemical, Aspergillus oryzae. To be noted: for Conversion in Homogeneous Aqueous Reaction System: 30 °C.
Assay [4] relates to Prozyme 6. The assay can be described thus: Asymmetric hydrolysis in an extractive dispersion reactor with enzyme F. Type of assay: biochemical, Aspergillus oryzae. Conditions: 3.38 gm ester in 100 ml 0.2 M sodium phosphate buffer pH 7.0 and 100 ml hexane, 100 mg Prozyme 6, 3.5 hours at room temperature, vigorous stirring. On the procedure: In this Example, the hexane was dispersed in the reaction vessel to extract the inhibitory ibuprofen acid as it is formed. The
reaction was started by adding 100 mg of the protease from the fungus Aspergillus oryzae (from Amano Enzyme Corporation, Prozyme 6, 60,000 units per mg of solid).
After 3.5 hours at room temperature with vigorous stirring, the solution was acidified to pH 2 and extracted with 2 volumes of hexane. The aqueous phase was saved for subsequent workup. The hexane phase was dried over MgS04 and evaporated to dryness. The resolved ibuprofen product so recovered consisted of 490 mg of white powder, indicating 24% conversion. The optical rotation was -0.568 (c = 1.015 in ethanol), indicating the R isomer of ibuprofen.

Assay [5] deals with Prozyme 6. The assay can be described thus: Asymmetric hydrolysis in an extractive membrane reactor with enzyme F. The format is biochemical, Aspergillus oryzae. To be noted: for enantiomeric excess: chiral HPLC, enzyme in aqueous phase only, 6.3 hours.
Assay [6] concerns lipase from Candida cylindracea (Lipase OF). Kind of assay: Activity of the carrier lipase against the ester. The format is biochemical. Conditions: Meito Sangyo Company.

As for `CC(C)Cc1ccc(C(C)C(=O)OCS(=O)(=O)O)cc1` (racemic) [Compound 1, Sodium Salt of 4-Sulfomethyl Ester of 2-(4-Isobutylphenyl) propanoic Acid], the “% CONVERSION” value in the assay with Protease XXIII is listed as 37.9%; in assay [1], 29.1%; with Protease XVI it was 27.2%; in assay [2], 34.0%. In addition, the “% e.e.” value in the assay with Protease XXIII (acid product, R) is more than 99%; in assay [1] (acid product, R), 44.6%; in the assay on Protease XVI (acid product, R), 70.7%; in assay [2] (acid product, R), 37.7%. Moreover, the “conversion of racemic ester to acid” value with Prozyme 6 [3] (3.22 gm ester in 100 ml 0.2 M sodium phosphate buffer pH 7.0, 100 mg protease (F), 20 hours at room temperature) is 45%. Further, the conversion in the assay on Prozyme 6 [3] (After 6.49 hours at 30 °C, 0.5 M ester in 325 ml 0.1 M sodium phosphate buffer pH 7.0, 3 gm enzyme (F)) came to 37.7%; with Prozyme 6 [4], 24%. In addition, the “Conversion in Homogeneous Aqueous Reaction System” value in the assay with Prozyme 6 [3] (Time 6.75 hrs, 0.5 M ester in 325 ml 0.1 M sodium phosphate buffer pH 7.0, 3 gm enzyme (F)) turned out to be 37.7%; with Prozyme 6 [3] (Time 23.1 hrs, 0.5 M ester in 325 ml 0.1 M sodium phosphate buffer pH 7.0, 3 gm enzyme (F)) it was 40.9%. Further, the results for the enantiomeric excess in the assay on Prozyme 6 [5] (R ibuprofen acid product) and in the assay on Prozyme 6 [5] (S ibuprofen from hydrolysis (pH 12) of the unconverted ester) were 99.3% and 98.9%, respectively. In the assay on Prozyme 6 [5] (enzyme in aqueous phase and in membrane pores (polyacrylonitrile fibers, 80% cyclohexane:20% toluene), 0.5 M ester, 3 gm protease (F), 6.75 hours at 30 °C), the “conversion of the racemic ester to the acid” value was determined as 48.3%. For the same molecule, the “conversion of the racemic ester to ibuprofen acid” value in the assay with Prozyme 6 [5] (enzyme in aqueous phase only (cellulose dialysis fibers, hexane), 32.51 gm ester in 1000 ml 0.1 M sodium phosphate buffer pH 7.0, 2 gm protease (F), 6.3 hours at room temperature) was found to be 50%. Further, the “activity of the enzyme against the ester” value in assay [6] is “inactive”.
